Results taken from ChEMBL document CHEMBL3390845, “Development of second generation amidinohydrazones, thio- and semicarbazones as Trypanosoma cruzi-inhibitors bearing benzofuroxan and benzimidazole 1,3-dioxide core scaffolds” (Medchemcomm, 2010).
pIC50: −log10 of the molar value.

Experiments:
[1] = target: Cruzipain (Trypanosoma cruzi) (UniProt P25779); assay: Inhibition of Trypanosoma cruzi Cruzipain using Z-Phe-Arg-AMC as substrate measured for 10 mins by spectrofluorimetric analysis relative to control
[2] = target: Cruzipain (Trypanosoma cruzi) (UniProt P25779); assay: Inhibition of Trypanosoma cruzi Cruzipain using Z-Phe-Arg-AMC as substrate at 100 uM at pH 7.3 measured for 10 mins by spectrofluorimetric analysis relative to control
[3] = system: Trypanosoma cruzi; assay: Antitrypanosomal activity against epimastigotes of Trypanosoma cruzi Tulahuen 2 assessed as parasite growth inhibition after 5 days; format: functional; settings: Tulahuen 2, 120 h, read-out: ID50 (the source's name)
[4] = Hemolytic activity in human RBC assessed as hemoglobin release after 24 hrs by spectrophotometry; format: ADME, cell-based, Erythrocyte; settings: for HC50 at 24 h: human red blood cells (RBC), read-out: ID50; for ID50: erythrocyte, 24 h
[5] = Selectivity index, ratio of ID50 for mouse J774 cells to ID50 for epimastigotes of Trypanosoma cruzi Tulahuen 2; format: toxicity, cell-based; settings: read-out: Selectivity Index
[6] = Cytotoxicity in mouse J774 cells assessed as cell viability after 48 hrs by MTT assay; format: cell-based; settings: read-out: ID50
[7] = Selectivity index, ratio of ID50 for human RBC to ID50 for epimastigotes of Trypanosoma cruzi Tulahuen 2
[8] = target: Cruzipain (Trypanosoma cruzi) (UniProt P25779); assay: Inhibition of Trypanosoma cruzi Cruzipain using Z-Phe-Arg-AMC as substrate at 100 uM at pH 5.3 measured for 10 mins by spectrofluorimetric analysis relative to control
[9] = target: Cruzipain (Trypanosoma cruzi) (UniProt P25779); assay: Inhibition of Trypanosoma cruzi Cruzipain using Z-Phe-Arg-AMC as substrate at 100 uM at pH 7.3 measured for 10 mins by spectrofluorimetric analysis relative to control in presence of Triton X-100

Sequence of Cruzipain (Trypanosoma cruzi) (P25779 123-467 limits assumed): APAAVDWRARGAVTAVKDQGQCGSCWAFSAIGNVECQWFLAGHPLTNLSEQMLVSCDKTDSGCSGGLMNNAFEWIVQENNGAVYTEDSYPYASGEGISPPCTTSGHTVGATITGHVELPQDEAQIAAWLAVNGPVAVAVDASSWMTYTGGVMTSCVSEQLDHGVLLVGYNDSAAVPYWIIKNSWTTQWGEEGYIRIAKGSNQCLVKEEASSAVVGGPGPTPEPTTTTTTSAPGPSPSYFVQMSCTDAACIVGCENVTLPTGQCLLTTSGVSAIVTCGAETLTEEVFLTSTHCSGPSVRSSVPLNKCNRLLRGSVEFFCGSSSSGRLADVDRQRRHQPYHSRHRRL

SMILES	ID50 [1]	inhibition [2]	pIC50 [3]	inhibition [8]	inhibition [9]	HC50 at 24 h [4]	selectivity ratio [5]	CC50 at 48 h [6]	Selectivity Index [7]	ID50 [4]
O=Cc1ccccc1OCc1ccc2no[n+]([O-])c2c1	> 100 µM	0%	5.20			> 100 µM	12.4	78 µM	> 15.9	
N=C(N)N/N=C/c1cccc(OCc2ccc3no[n+]([O-])c3c2)c1	100 µM	42%	< 4.60	28%		> 100 µM				
[O-][n+]1onc2ccc(/C=N/N=C/c3ccccc3O)cc21	68 µM		< 4.60							
CC1(C)[N+]([O-])=c2ccc(COc3ccccc3/C=N\NC(=S)Nc3ccccc3)cc2=[N+]1[O-]	> 100 µM	0%	5.11			66 µM		< 100 µM		
C=CCNC(=S)N/N=C\c1ccccc1OCc1ccc2no[n+]([O-])c2c1	> 100 µM	11%	4.64			139 µM		138 µM		
C[C@@H]1[C@H](O)[C@@H](C)/C=C/C=C/C=C/C=C/C=C/C=C/C=C/[C@H](O[C@@H]2O[C@H](C)[C@@H](O)[C@H](N)[C@@H]2O)C[C@@H]2O[C@](O)(C[C@@H](O)C[C@@H](O)[C@H](O)CC[C@@H](O)C[C@@H](O)CC(=O)O[C@H]1C)C[C@H](O)[C@H]2C(=O)O [AMPHOTERICIN B]						1.5 µM			10	
CC1(C)[N+]([O-])=c2ccc(COc3ccccc3/C=N\NC(N)=S)cc2=[N+]1[O-]	> 100 µM	35%	4.85			> 200 µM				
C=CCNC(=S)N/N=C/c1cccc(OCc2ccc3no[n+]([O-])c3c2)c1	55 µM	100%	4.89	79%	90%					ND(Insoluble)
NC(=S)N/N=C/c1cccc(OCc2ccc3no[n+]([O-])c3c2)c1	78 µM	80%	4.82							ND(Insoluble)
CC1(C)[N+]([O-])=c2ccc(COc3cccc(C=O)c3)cc2=[N+]1[O-]	100 µM	45%	< 4.60			< 50 µM				
CC1(C)[N+]([O-])=c2ccc(COc3cccc(/C=N/NC(N)=S)c3)cc2=[N+]1[O-]	64 µM	95%	4.62			141 µM				
C/C(=N/NC(=N)N)c1ccccc1OCc1ccc2no[n+]([O-])c2c1	> 100 µM	21%	4.78			> 200 µM				
NC(=O)N/N=C\c1ccccc1OCc1ccc2no[n+]([O-])c2c1	> 100 µM	7%	< 4.60			> 100 µM		< 100 µM		
CC1(C)[N+]([O-])=c2ccc(COc3ccc(/C=N/NC(N)=O)cc3)cc2=[N+]1[O-]	> 100 µM	0%	< 4.60			> 200 µM				
N=C(N)N/N=C\c1ccccc1OCc1ccc2no[n+]([O-])c2c1	> 100 µM	39%	< 4.60			58 µM		< 100 µM		
CC1CS(=O)(=O)CCN1/N=C/c1ccc([N+](=O)[O-])o1 (stereo not given) [NIFURTIMOX]						> 100 µM			13	
NC(=S)N/N=C\c1ccccc1OCc1ccc2no[n+]([O-])c2c1	100 µM	49%	< 4.60			189 µM		< 100 µM		
NC(=S)N/N=C/c1ccc(OCc2ccc3no[n+]([O-])c3c2)cc1	43 µM					> 200 µM	26.7		> 13.3	
O=Cc1cccc(OCc2ccc3no[n+]([O-])c3c2)c1	100 µM	43%	4.55			50 µM				
CC1(C)[N+]([O-])=c2ccc(COc3ccc(/C=N/NC(N)=S)cc3)cc2=[N+]1[O-]	> 100 µM	13.7%	4.77							ND(Insoluble)

Now from value to compound, other results behind:

ID50 [1]	inhibition [2]	pIC50 [3]	inhibition [8]	inhibition [9]	SMILES	HC50 at 24 h [4]	selectivity ratio [5]	CC50 at 48 h [6]	Selectivity Index [7]	ID50 [4]
> 100 µM	2.5%	< 4.60			CC1(C)[N+]([O-])=c2ccc(COc3ccccc3/C=N\NC(=N)N)cc2=[N+]1[O-]	114 µM				
> 100 µM	0%	< 4.60			CC(=O)c1ccccc1OCc1ccc2c(c1)=[N+]([O-])C(C)(C)[N+]=2[O-]	< 50 µM				
85 µM	72%	< 4.60			CC1(C)[N+]([O-])=c2ccc(COc3ccc(/C=N/NC(=S)Nc4ccccc4)cc3)cc2=[N+]1[O-]	< 50 µM				
> 100 µM	6.6%	5.57			C=CCNC(=S)N/N=C\c1ccccc1OCc1ccc2c(c1)=[N+]([O-])C(C)(C)[N+]=2[O-]					ND(Insoluble)
> 100 µM	0%	5.33			CC1(C)[N+]([O-])=c2ccc(COc3ccccc3/C=N\NC(N)=O)cc2=[N+]1[O-]	50 µM				
> 100 µM					NC(=O)N/N=C/c1ccc(OCc2ccc3no[n+]([O-])c3c2)cc1	> 200 µM				
32 µM					N=C(N)N/N=C/c1ccc(OCc2ccc3no[n+]([O-])c3c2)cc1	> 200 µM				
> 100 µM	0%	5.44			[O-][n+]1onc2ccc(COc3ccccc3/C=N\NC(=S)Nc3ccccc3)cc21	> 200 µM	> 111	> 400 µM	> 55.6	
75 µM	95%	5.15			[O-][n+]1onc2ccc(COc3ccc(/C=N/NC(=S)Nc4ccccc4)cc3)cc21					ND(Insoluble)
73 µM		4.60			[O-][n+]1onc2ccc(/C=N/N=C/c3cc(Br)ccc3O)cc21					
> 100 µM	12%	5.15			CC(=O)c1ccccc1OCc1ccc2no[n+]([O-])c2c1	> 200 µM				
> 100 µM	38%	< 4.60			C=CCNC(=S)N/N=C/c1ccc(OCc2ccc3no[n+]([O-])c3c2)cc1					ND(Insoluble)
> 100 µM	35.5%	4.77			CC1(C)[N+]([O-])=c2ccc(COc3ccc(C=O)cc3)cc2=[N+]1[O-]	65 µM		< 100 µM		
		5.14			C=CCNC(=S)N/N=C/c1ccc2c(c1)=[N+]([O-])C(C)(C)[N+]=2[O-]					
100 µM	51%	4.64			C=CCNC(=S)N/N=C/c1ccc(OCc2ccc3c(c2)=[N+]([O-])C(C)(C)[N+]=3[O-])cc1	> 100 µM				
78 µM		5.08			[O-][n+]1onc2ccc(/C=N/NC(=S)Nc3ccccc3)cc21					
> 100 µM	6.3%				O=Cc1ccc(OCc2ccc3no[n+]([O-])c3c2)cc1	< 50 µM				
